Results published in ChEMBL document CHEMBL1156251, “Structure--activity relationships of polymyxin antibiotics” (J Med Chem, 2010).
Converted amounts (≈) assume the structure as drawn. Values belong to the molecule of their own block, whether it stands above or below them. Where a SMILES comes first, the peptide text is derived from it. Bridges are numbered along the chain shown (N, C = ends). [ ]: non-standard residue; d: D form. The star is where a group is joined. Octanoyl = CCCCCCCC(=O)*; Dab = NCC[C@H](N)C(=O)O

Assays:
Escherichia coli [1] = assay: Antimicrobial activity against Escherichia coli; assay type: functional
Staphylococcus aureus = assay: Antimicrobial activity against Staphylococcus aureus; assay type: functional
Pseudomonas aeruginosa [2] = assay: Antimicrobial activity against Pseudomonas aeruginosa; assay type: functional, organism-based
[3] = (§1) Toxicity in iv dosed CF1 mouse; assay type: organism-based; conditions: CF1, mouse, in vivo
Klebsiella pneumoniae = assay: Antimicrobial activity against Klebsiella pneumoniae; assay type: functional
Mus musculus [4] = assay: Protective activity in sc dosed CF1 mouse; conditions: in vivo
Lipopolysaccharide (LPS) = assay: Displacement of dansyl-PMB from LPS by isothermal titration calorimetry
Escherichia coli [5] = assay: Antimicrobial activity against Escherichia coli assessed as relative sensitizing activity; assay type: functional
[6] = (§2) Toxicity in mouse; assay type: organism-based; conditions: in vivo
Escherichia coli [7] = assay: Antimicrobial activity against PMB-resistant Escherichia coli SC9253; assay type: functional
Escherichia coli [8] = assay: Antimicrobial activity against PMB-susceptible Escherichia coli SC9251; assay type: functional
Mus musculus [9] = assay: as §1; assay type: organism-based; conditions: mouse, in vivo
Mus musculus [10] = species: Mus musculus; assay: as §2; assay type: organism-based; conditions: in vivo
Mus musculus [11] = assay: Acute toxicity in iv dosed mouse; assay type: organism-based; conditions: in vivo
Pseudomonas aeruginosa [12] = test system: Pseudomonas aeruginosa
Salmonella enterica = assay: Antimicrobial activity against Salmonella enterica; assay type: functional

MIC (Escherichia coli [1]): 0.5 µg/mL | MIC (Staphylococcus aureus): ≥ 16 µg/mL | MIC (Pseudomonas aeruginosa [2]): 2 µg/mL (≈ 1.81 µM)
Molecule: CCCCCCCCC(=O)N[C@H](C(=O)N[C@@H](CCN)C(=O)N[C@H]1CCNC(=O)[C@H]([C@@H](C)O)NC(=O)[C@H](CCN)NC(=O)[C@H](CCN)NC(=O)[C@H](CC(C)C)NC(=O)[C@@H](Cc2ccccc2)NC(=O)[C@H](CCN)NC1=O)[C@@H](C)O

MIC (Escherichia coli [1]): 0.03 µg/mL | MIC (Staphylococcus aureus): ≥ 16 µg/mL | MIC (Pseudomonas aeruginosa [2]): 4 µg/mL (≈ 3.67 µM)
Molecule: CCCCCCCC(=O)N[C@H](C(=O)N[C@@H](CCN)C(=O)N[C@H]1CCNC(=O)[C@H]([C@@H](C)O)NC(=O)[C@H](CCN)NC(=O)[C@H](CCN)NC(=O)[C@H](CC(C)C)NC(=O)[C@@H](Cc2ccccc2)NC(=O)[C@H](CCN)NC1=O)[C@@H](C)O (stereo in doubt; 80) [Octanoyl Polymixin B nonapeptide]

MIC (Escherichia coli [1]): 1 µg/mL | MIC (Staphylococcus aureus): ≥ 16 µg/mL | MIC (Pseudomonas aeruginosa [2]): 2 µg/mL (≈ 1.79 µM)
Molecule: CCCCCCCCCC(=O)N[C@H](C(=O)N[C@@H](CCN)C(=O)N[C@H]1CCNC(=O)[C@H]([C@@H](C)O)NC(=O)[C@H](CCN)NC(=O)[C@H](CCN)NC(=O)[C@H](CC(C)C)NC(=O)[C@@H](Cc2ccccc2)NC(=O)[C@H](CCN)NC1=O)[C@@H](C)O [DECANOYL POLYMIXIN B NONAPEPTIDE]

Second part, the molecule before the results:

Molecule: CCCCCCCC(=O)N[C@@H](CCN)C(=O)N[C@H](C(=O)N[C@@H](CCN)C(=O)N[C@H]1CCNC(=O)[C@H]([C@@H](C)O)NC(=O)[C@H](CCNC(=O)[C@@H](N)CCCNC(=N)N)NC(=O)[C@H](CCN)NC(=O)[C@H](CC(C)C)NC(=O)[C@@H](Cc2ccccc2)NC(=O)[C@H](CCN)NC1=O)[C@@H](C)O (Octanoyl-[Dab]T[Dab][Dab][Dab][dF]L[Dab][Dab](Arg)T; lactam 4-C)
LD50 [3]: 15 mg/kg | MIC (Escherichia coli [1]): 0.16 µg/mL | MIC (Klebsiella pneumoniae): 2 µg/mL (≈ 1.49 µM) | MIC (Pseudomonas aeruginosa [2]): 0.03 µg/mL (≈ 0.0223 µM) | PD50 (Mus musculus [4]): 0.25 mg/kg

Molecule: CC(C)C[C@@H]1NC(=O)[C@@H](Cc2ccccc2)NC(=O)[C@H](CCN)NC(=O)[C@@H](NC(=O)[C@H](CCN)NC(=O)[C@@H](N)[C@@H](C)O)CCNC(=O)[C@H]([C@@H](C)O)NC(=O)[C@H](CCN)NC(=O)[C@H](CCN)NC1=O (stereo in doubt; 193) [POLYMYXIN B NONAPEPTIDE]
IC50 (Lipopolysaccharide (LPS); read-out: IC50): 2500 nM | Activity (Escherichia coli [5]): 100% | LD50 [6]: 43 mg/kg

Molecule: CC(C)CCCCCC(O)CC(=O)N[C@@H](CCN)C(=O)N[C@H]1CCNC(=O)[C@H](CC(C)C)NC(=O)[C@H](CCN)NC(=O)[C@H](CCN)NC(=O)[C@H](CC(C)C)NC(=O)[C@@H](Cc2ccccc2)NC(=O)[C@H](CCN)NC1=O (stereo partly specified) [OCTAPEPTIN A1]
MIC (Escherichia coli [7]): 0.3 µg/mL (≈ 0.283 µM) | MIC (Escherichia coli [8]): 1.7 µg/mL (≈ 1.61 µM)

Molecule: POLYMYXIN B [listing 1 of 2 here]
IC50 (Lipopolysaccharide (LPS)): 4000 nM | LD50 (Mus musculus [9]): 9 mg/kg | LD50 (Mus musculus [10]): 9 mg/kg | LD50 (Mus musculus [11]): 4.8 µM/g

Molecule: POLYMYXIN B [listing 2 of 2 here]
MIC (Pseudomonas aeruginosa [12]): 1 µM | MIC (Escherichia coli [1]): 1 µM | MIC (Salmonella enterica): 1 µM
